These results are taken from publication PMC10002548, “Amorphous System of Hesperetin and Piperine—Improvement of Apparent Solubility, Permeability, and Biological Activities” (International Journal of Molecular Sciences, 2023).

As usually defined, the thermodynamic solubility is the concentration in solution at equilibrium with solid. One may read the Papp as a coefficient for how fast a substance crosses the barrier.

A short description of one data set: physchem. In kind it is physicochemical. The conditions noted are these: for solubility thermodynamic at 3 h: pH 6.8, aqueous buffer, thermodynamic from solid. On the procedure:
(§1) The injection volume differed depending on the assay. […] The method’s duration was 10 min.
(§2) Phosphate buffer at pH 6.8 was prepared according to the following description: in a 1000-mL volumetric flask, we placed 250 mL of 0.2 N potassium dihydrogen phosphate solution, then added 112 mL of 0.2 N sodium hydroxide solution, and filled the mixture up to 1000 mL with distilled water. High-quality pure water was prepared using a Direct-Q 3 UV purification system (Millipore, Molsheim, France, model Exil SA 67120).
An excess amount of raw compounds and systems was placed in a 10 mL glass tube; then, 2.0 mL of phosphate buffer (pH 6.8) was added and left at room temperature for 3 h.

Data set [1] can be described thus: PAMPA BBB permeability assay. From the text: For the stationary phase, a Dr. Maisch ReproSil-Pur Basic-C18 100 Å column with 5 µm particle size and 250 × 4.60 mm (Dr. Maisch, Ammerbuch-Entringen, Germany) was used. […] The mobile phase was vacuum-filtered through a 0.45 µm nylon filter (Phenomenex, Torrance, CA, USA). […] The injection volume differed depending on the assay.
The sandwich consists of two 96-well microfilter plates. The PAMPA systems contain two chambers: the donor chamber at the bottom and the acceptor chamber at the top. […] The plates were combined and then incubated for 3 h for both models in a humidity-saturated atmosphere with the temperature set at 37 °C. To assess the apparent permeability coefficient factor (Papp), 5.0 mg of raw compounds were dissolved in 1.0 mL of DMSO. Then, we followed the manufacturer’s guidelines for further performance in the assay. […] In the case of the studied systems, the solutions were first prepared in the same manner as in the solubility study. […] Next, the obtained solution was diluted 1:1 with donor solution for the GIT and BBB assays and placed in the donor compartment. The results were expressed as a concentration in the acceptor solution.

Data set [2] can be described thus: Dissolution study (paddle apparatus). In kind it is physicochemical. The conditions noted are these: phosphate buffer pH 6.8, 37 °C, 50 rpm; raw compound value after one hour. The method, then:
as §1, §2
The dissolution study was performed on the paddle apparatus. The amount of the compound and systems corresponding to 7.0 mg of each plant-origin active ingredient was added to the dissolution medium. The vessels were filled with 500 mL of phosphate buffer, pH 6.8; the temperature was maintained at 37 °C, and the paddles were set at a stirring speed of 50 rotations per minute. The 2.0 mL samples were withdrawn at predetermined time points with the replacement of equal volumes of temperature-equilibrated media.

A short description of the next data set: in vitro. In kind it is in vitro ADME. The method, then: as §1
The sandwich consists of two 96-well microfilter plates.

Each structure is given as a SMILES string. ≈ marks a conversion by molar mass, not a printed value.

`COc1ccc([C@@H]2CC(=O)c3c(O)cc(O)cc3O2)cc1O` [Hesperetin, hesperetin]: the “Hesperetin Conc.” value in “physchem” (3 h, pH 6.8) stood at 0.005 ± 0.001 mg/mL. The compound further displayed a solubility (thermodynamic) at 3 h in the data set “physchem” of 5 ± 1 µg/mL (≈ 16.5 µM). Further, in data set [1] (PAMPA, pH 7.4), the Papp at 3 h was 7.05 ×10⁻⁶ cm/s. The “concentration of hesperetin in the acceptor part, PAMPA BBB” value in data set [1] (donor pH ≈ 7.4, 3 h, 37 °C) was determined as 38.9 ± 16.6 ng/mL. Besides, the “hesperetin dissolved (% of the dose added to the dissolution medium)” value in data set [2] came out at 23.75 ± 2.99%. For the same compound, the “concentration of hesperetin in the acceptor part, PAMPA GIT” value in “in vitro” (3 h, pH 6.8) amounted to 25.8 ± 6.16 ng/mL. In addition, in the data set “in vitro” (PAMPA, raw compound dissolved in DMSO, donor pH ≈ 6.8, 3 h, 37 °C, read-out: apparent permeability coefficient (Papp), PAMPA GIT), the Papp is 2.59 ×10⁻⁶ cm/s.
Turning to `O=C(/C=C/C=C/c1ccc2c(c1)OCO2)N1CCCCC1` [Piperine, piperine], the “Piperine Conc.” value in the data set “physchem” (3 h, pH 6.8) is 0.006 ± 0.001 mg/mL. This compound gave a thermodynamic solubility at 3 h in the data set “physchem” of 6 ± 1 µg/mL (≈ 21 µM). The “concentration of piperine in the acceptor part, PAMPA BBB” value in data set [1] (PAMPA, 3 h, pH 7.4) was 1030 ± 104 ng/mL. For the same compound, the Papp at 3 h in data set [1] (PAMPA, pH 7.4) was determined as 40 ×10⁻⁶ cm/s; in the data set “in vitro” (PAMPA, pH 6.8), 37.3 ×10⁻⁶ cm/s. Moreover, the “piperine dissolved (% of the dose added to the dissolution medium)” value in data set [2] amounted to 27.79 ± 3.38%. Moreover, in the data set “in vitro” (3 h, pH 6.8), the “concentration of piperine in the acceptor part, PAMPA GIT” value is 2010 ± 100 ng/mL.
